Experimental data from US7943770B2, “Fused quinoline derivative and use thereof” (Takeda Pharmaceutical Company Limited, priority 2004, dated 2011).
Counter-ions that a name gives are not always drawn.

molecular target: T1, hNK2 receptor (Homo sapiens, UniProt P21452); test: Radio-ligand ([125I]-NKA) receptor binding inhibitory activity using membrane fraction of hNK2 receptor-expressing CHO cell; conditions: membrane fraction of hNK2 receptor-expressing CHO cells, 25° C., 30 min
T1 construct: host or cells: CHO cells
T1 sequence (P21452 1-398): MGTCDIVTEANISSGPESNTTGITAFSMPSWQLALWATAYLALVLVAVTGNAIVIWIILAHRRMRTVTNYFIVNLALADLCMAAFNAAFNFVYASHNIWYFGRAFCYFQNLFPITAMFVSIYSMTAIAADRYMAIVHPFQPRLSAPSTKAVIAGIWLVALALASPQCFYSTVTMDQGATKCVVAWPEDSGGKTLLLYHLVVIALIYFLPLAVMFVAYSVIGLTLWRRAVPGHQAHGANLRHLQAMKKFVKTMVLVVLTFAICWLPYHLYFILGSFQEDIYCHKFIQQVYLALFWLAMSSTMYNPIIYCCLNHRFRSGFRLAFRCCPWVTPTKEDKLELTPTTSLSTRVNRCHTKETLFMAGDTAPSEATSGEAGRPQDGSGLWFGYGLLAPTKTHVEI
Method: hNK2 receptor-expressing CHO cells (produced by EUROSCREEN) were cultured in HAM-F12 medium containing 400 μg/ml Geneticin, 100 U/mL penicillin, 100 μg/mL streptomycin and 10% inactivated serum. The medium was removed and adhered cells were washed with PBS, and PBS containing 5 mM EDTA was added to detach the cells from the flask. The cells were recovered by centrifugation, suspended in suspending buffer A (15 mM Tris-HCl (pH 7.5), 2 mM MgCl2, 0.3 mM EDTA, 1 mM EGTA), disrupted by POLYTRON homogenizer (manufactured by KINEMATICA) and centrifuged at 800×g for 10 min. The supernatant was recovered and ultracentrifuged at 100000×g for 25 min. The precipitated fraction was suspended in suspending buffer B (7.5 mM Tris-HCl (pH 7.5), 12.5 mM MgCl2, 0.3 mM EDTA, 1 mM, […], 250 mM Sucrose) and cryopreserved (at −80° C.) as a receptor specimen.
An assay buffer (50 μl, 50 mM Tris-HCl (pH 7.4), 0.02% bovine serum albumin, 2 μg/mL chymostatin, 40 μg/mL bacitracin, 40 μg/mL APMSF, 3 mM MnCl2) was added to a 96 well microassay plate. Thereto was added a 20 μg/mL membrane specimen suspended in the assay buffer (50 μL). An assay buffer (50 μL) containing 2% dimethyl sulfoxide was added to examine the total binding, 4 unlabeled NKA (produced by Peptide Institute, Inc.) solution (50 μL) diluted with an assay buffer containing 2% dimethyl sulfoxide was added to examine non-specific binding, and a test compound diluted with an assay buffer (50 containing 2% dimethyl sulfoxide) was added to examine the binding inhibitory activity of the test compound. Furthermore, […] [^125I]-NKA (produced by Amersham Biosciences) solution (50 μL) was added to each well.
After reaction at 25° C. for 30 min., the reaction was stopped by rapid filtration on a unifilter plate (GF/C) (manufactured by PerkinElmer) using a cell harvester (manufactured by PerkinElmer) and the cells were washed 5 times with 50 mM Tris-HCl (pH 7.4) buffer containing 0.02% bovine serum albumin (250 μL). The GF/C filter plate was dried and 20 μl, of MicroScinti-O (manufactured by PerkinElmer) was added and the radioactivity was measured in Topcount (manufactured by PerkinElmer). The GF/C filter plate, which had been immersed in 0.3% polyethyleneimine for one day, was used. Specific binding is shown by the value obtained by subtracting non-specific binding from the total binding. The binding inhibitory activity of the test compound is shown by the ratio of the value obtained by subtracting the measured value associated with the addition of the test compound from the total binding, to the value of the specific binding.

Compound | IC50
O=C(N[C@@H]1CCCC[C@@H]1C(=O)N1CC[C@@H]2[C@H](c3ccccc3)Nc3ccccc3[C@@H]21)c1ccccc1 (relative stereo) [Example 1, N-((1R,2S)-2-{[(3aR*,4R*,9bR*)-4-Phenyl-2,3,3a,4,5,9b-hexahydro-1H-pyrrolo[3,2-c]quinolin-1-yl]carbonyl}cyclohexyl)benzamide] | < 10 nM
O=C(N[C@@H]1CCCC[C@@H]1C(=O)N1CC[C@@H]2[C@H](c3ccccc3)Nc3cc(F)ccc3[C@@H]21)c1ccccc1 (relative stereo) [Example 6, N-((1R,2S)-2-{[(3aR*,4R*,9bR*)-7-Fluoro-4-phenyl-2,3,3a,4,5,9b-hexahydro-1H-pyrrolo[3,2-c]quinolin-1-yl]carbonyl}cyclohexyl)benzamide] | < 10 nM
O=C(N[C@@H]1CCCC[C@@H]1C(=O)N1CC[C@@H]2[C@H](c3ccccc3)Nc3cc(Cl)ccc3[C@@H]21)c1ccccc1 (relative stereo) [Example 7, N-((1R,2S)-2-{[(3aR*,4R*,9bR*)-7-Chloro-4-phenyl-2,3,3a,4,5,9b-hexahydro-1H-pyrrolo[3,2-c]quinolin-1-yl]carbonyl}cyclohexyl)benzamide] | < 10 nM
O=C(N[C@@H]1CCCC[C@@H]1C(=O)N1CC[C@@H]2[C@H](c3ccccc3)Nc3c(F)cccc3[C@@H]21)c1ccccc1 (relative stereo) [Example 8, N-((1R,2S)-2-{[(3aR*,4R*,9bR*)-6-Fluoro-4-phenyl-2,3,3a,4,5,9b-hexahydro-1H-pyrrolo[3,2-c]quinolin-1-yl]carbonyl}cyclohexyl)benzamide] | < 10 nM
O=C(N[C@@H]1CCCC[C@@H]1C(=O)N1CC[C@@H]2[C@H](c3ccc(F)cc3)Nc3ccccc3[C@@H]21)c1ccccc1 (relative stereo) [Example 9, N-((1R,2S)-2-{[(3aR*,4R*,9bR*)-4-(4-Fluorophenyl)-2,3,3a,4,5,9b-hexahydro-1H-pyrrolo[3,2-c]quinolin-1-yl]carbonyl}cyclohexyl)benzamide] | < 10 nM
O=C(N[C@@H]1CCCC[C@@H]1C(=O)N1CC[C@@H]2[C@H](c3ccco3)Nc3ccccc3[C@@H]21)c1ccccc1 (relative stereo) [Example 15, N-((1R,2S)-2-{[(3aR*,4R*,9bR*)-4-(2-Furyl)-2,3,3a,4,5,9b-hexahydro-1H-pyrrolo[3,2-c]quinolin-1-yl]carbonyl}cyclohexyl)benzamide] | < 10 nM
O=C(N[C@@H]1CCCC[C@@H]1C(=O)N1CC[C@@H]2[C@H](c3ccoc3)Nc3ccccc3[C@@H]21)c1ccccc1 (relative stereo) [Example 16, N-((1R,2S)-2-{[(3aR*,4R*,9bR*)-4-(3-Furyl)-2,3,3a,4,5,9b-hexahydro-1H-pyrrolo[3,2-c]quinolin-1-yl]carbonyl}cyclohexyl)benzamide] | < 1 nM
O=C(N[C@@H]1CCCC[C@@H]1C(=O)N1CC[C@@H]2[C@H](c3cccs3)Nc3ccccc3[C@@H]21)c1ccccc1 (relative stereo) [Example 17, N-((1R,2S)-2-{[(3aR*,4R*,9bR*)-4-(2-Thienyl)-2,3,3a,4,5,9b-hexahydro-1H-pyrrolo[3,2-c]quinolin-1-yl]carbonyl}cyclohexyl)benzamide] | < 10 nM
O=C(N[C@@H]1CCCC[C@@H]1C(=O)N1CC[C@H]2[C@@H](c3ccsc3)Nc3ccccc3[C@H]21)c1ccccc1 (relative stereo) [Example 18, N-((1R,2S)-2-{[(3aS*,4S*,9bS*)-4-(3-Thienyl)-2,3,3a,4,5,9b-hexahydro-1H-pyrrolo[3,2-c]quinolin-1-yl]carbonyl}cyclohexyl)benzamide] | < 1 nM
O=C(N[C@@H]1CCCC[C@@H]1C(=O)N1CC[C@@H]2[C@H](c3ccccn3)Nc3ccccc3[C@@H]21)c1ccccc1 (relative stereo) [Example 19, N-((1R,2S)-2-{[(3aR*,4R*,9bR*)-4-Pyridin-2-yl-2,3,3a,4,5,9b-hexahydro-1H-pyrrolo[3,2-c]quinolin-1-yl]carbonyl}cyclohexyl)benzamide] | < 10 nM
O=C(N[C@@H]1CCCC[C@@H]1C(=O)N1CC[C@@H]2[C@H](c3cccnc3)Nc3ccccc3[C@@H]21)c1ccccc1 (relative stereo) [Example 20, N-((1R,2S)-2-{[(3aR*,4R*,9bR*)-4-Pyridin-3-yl-2,3,3a,4,5,9b-hexahydro-1H-pyrrolo[3,2-c]quinolin-1-yl]carbonyl}cyclohexyl)benzamide] | < 10 nM
Cn1cccc1[C@@H]1Nc2ccccc2[C@H]2[C@@H]1CCN2C(=O)[C@H]1CCCC[C@H]1NC(=O)c1ccccc1 (relative stereo) [Example 23, N-((1R,2S)-2-{[(3aR*,4R*,9bR*)-4-(1-Methyl-1H-pyrrol-2-yl)-2,3,3a,4,5,9b-hexahydro-1H-pyrrolo[3,2-c]quinolin-1-yl]carbonyl}cyclohexyl)benzamide] | < 10 nM

The remaining lines, values ahead:

IC50 | Compound
< 10 nM | O=C(N[C@@H]1CCCC[C@@H]1C(=O)N1CC[C@@H]2[C@H](c3nccs3)Nc3ccccc3[C@@H]21)c1ccccc1 (relative stereo) [Example 25, N-((1R,2S)-2-{[(3aR*,4R*,9bR*)-4-(1,3-Thiazol-2-yl)-2,3,3a,4,5,9b-hexahydro-1H-pyrrolo[3,2-c]quinolin-1-yl]carbonyl}cyclohexyl)benzamide]
< 10 nM | CCC[C@@H]1Nc2ccccc2[C@H]2[C@@H]1CCN2C(=O)[C@H]1CCCC[C@H]1NC(=O)c1ccccc1 (relative stereo) [Example 27, N-((1R,2S)-2-{[(3aR*,4S*,9bR*)-4-Propyl-2,3,3a,4,5,9b-hexahydro-1H-pyrrolo[3,2-c]quinolin-1-yl]carbonyl}cyclohexyl)benzamide]
< 10 nM | CC(C)[C@@H]1Nc2ccccc2[C@H]2[C@@H]1CCN2C(=O)[C@H]1CCCC[C@H]1NC(=O)c1ccccc1 (relative stereo) [Example 28, N-((1R,2S)-2-[(3aR*,4S*, 9bR*)-4-Isopropyl-2,3,3a,4,5,9b-hexahydro-1H-pyrrolo[3,2-c]quinolin-1-yl]carbonyl)cyclohexyl)benzamide]
< 10 nM | O=C(N[C@@H]1CCCC[C@@H]1C(=O)N1CC[C@@H]2[C@H](C3CC3)Nc3ccccc3[C@@H]21)c1ccccc1 (relative stereo) [Example 29, N-((1R,2S)-2-{[(3aR*,4S*,9bR*)-4-Cyclopropyl-2,3,3a,4,5,9b-hexahydro-1H-pyrrolo[3,2-c]quinolin-1-yl]carbonyl}cyclohexyl)benzamide]
< 10 nM | COC[C@@H]1Nc2ccccc2[C@H]2[C@@H]1CCN2C(=O)[C@H]1CCCC[C@H]1NC(=O)c1ccccc1 (relative stereo) [Example 51, N-((1R,2S)-2-{[(3aR*,4R*,9bR*)-4-(Methoxymethyl)-2,3,3a,4,5,9b-hexahydro-1H-pyrrolo[3,2-c]quinolin-1-yl]carbonyl}cyclohexyl)benzamide]
< 10 nM | O=C(N[C@@H]1CCCC[C@@H]1C(=O)N1CC[C@@H]2[C@H](c3cc[nH]c3)Nc3ccccc3[C@@H]21)c1ccccc1 (relative stereo) [Example 52, N-((1R,2S)-2-{[(3aR*,4R*,9bR*)-4-(1H-Pyrrol-3-yl)-2,3,3a,4,5,9b-hexahydro-1H-pyrrolo[3,2-c]quinolin-1-yl]carbonyl}cyclohexyl)benzamide]
< 10 nM | CNC[C@@H]1Nc2ccccc2[C@H]2[C@@H]1CCN2C(=O)[C@H]1CCCC[C@H]1NC(=O)c1ccccc1 (relative stereo) [Example 53, N-[(1R,2S)-2-({(3aR*,4R*,9bR*)-4-[(Methylamino)methyl]-2,3,3a,4,5,9b-hexahydro-1H-pyrrolo[3,2-c]quinolin-1-yl}carbonyl)cyclohexyl]benzamide dihydrochloride]
< 1 nM | O=C(N[C@@H]1CCCC[C@@H]1C(=O)N1CC[C@@H]2[C@H](c3ncc[nH]3)Nc3ccccc3[C@@H]21)c1ccccc1 (relative stereo) [Example 54, N-((1R,2S)-2-{[(3aR*,4R*,9bR*)-4-(1H-Imidazol-2-yl)-2,3,3a,4,5,9b-hexahydro-1H-pyrrolo[3,2-c]quinolin-1-yl]carbonyl}cyclohexyl)benzamide]
